Where “and” joins values, the source holds several entries; their conditions need not be identical. Equal values may be shown once.
Legend:
[1] = 1H NMR titration with TBACl, Cl− binding; conditions: association constant towards Cl−, compound 2.5 mM, 95% DMSO-d6, 1:1 binding model (Bindfit), errors below 10%
Method: To verify if 1–6 formed host–guest complexes with Cl^− in solution, ^1H NMR titrations of each compound (2.5 mM) with TBACl were carried out in DMSO-d6. Increasing equivalents of Cl^− were incrementally added, with spectral information obtained upon addition of each molar equivalent of Cl^−. […] Taking 1 as an example (Fig. 2), upon addition of sequential aliquots of Cl^− there is a clear downfield shift of both squaramide NHs, with minor contributions to the binding cleft derived from the ortho-aryl protons of the aniline of 1. The binding data from each titration was fitted to a 1 : 1 binding model using the Bindfit[36] open access software, and the results are tabulated below (Table 1), alongside the respective Hammett constant for the relevant substitution pattern.[37] […] This aligns with previously reported receptors,[38] where compounds containing CF3 substituents in particular are known to have increased anion binding affinity as well as transport ability.[39]

[2] = Lucigenin Cl−/NO3− exchange assay in LUVs; conditions: Cl− transport, 0.4 mM POPC/cholesterol 7:3 LUVs, Hill fit at 270 s
Method: Given our objective was to use such transport behaviour as a method to disrupt anion homeostasis in bacteria, we also conducted anion transport assays in Large Unilamellar Liposomes (LUVs) using the well-established Lucigenin-based Cl^−/NO3^− exchange assay.[40] Briefly, LUVs containing the chloride sensitive dye lucigenin in a NaNO3 solution were prepared and a NaCl pulse was added to create a chloride concentration gradient. Upon addition of the putative transporter, the quenching of the fluorescence of lucigenin was monitored over time to assess Cl^− influx.
Lucigenin Cl-/NO3- anion exchange assay
LUV preparation and Lucigenin assays were carried out following procedures outlined by Valkenier and co-workers.8 Large unilamellar liposomes (LUVs) were synthesized using 1-palmitoyl-2-oleoyl-sn-glycero-3-phosphocholine (POPC)(11.2 µmol, soln. in CHCl3) and Cholesterol (4.8 µmol) mixed in a ratio of 7:3. This mixture was brought to dryness under gentle vacuum and subsequently, the mixture was rehydrated in an aqueous Lucigenin solution (1 mL, 0.8mM lucigenin in 225 mM NaNO3) and stirred for 1 h to obtain heterogeneous vesicles. After that, the vesicles underwent 9 freeze-thaw cycles and were extruded through a […] polycarbonate membrane 29 times to obtain monodisperse LUVs. A Sephadex G-100 size-exclusion column was employed to remove any unencapsulated lucigenin. The collected liposomes were diluted to 40 mL with 225 mM NaNO3 to obtain a homogeneous 0.4 mM liposome solution. Lucigenin fluorescence quenching was monitored in a time dependent manner using an Agilent Spectrofluorimeter to access Cl- influx (λ ex = 430 nm, λem = 505 nm).
Cl- transport behaviour was initiated at t=0 s by adding each compound as a solvate in DMSO followed by a 25 mM NaCl pulse (75µL, 1 M NaCl in […] NaNO3) to a 3 mL liposome solution. The data was collected for at least 600 s and then Triton X-100 (5% w/w in water) was added to lyse the liposomes, and normalize to 100% efflux. The recorded data was normalised and the fraction fluorescence intensity at 270 s of each tested concentration of transporters (mol%) was plotted against transporter concentration (mol%). The data obtained was fitted to the Hill equation to obtain the EC50 value at 270 s (the concentration to obtain the half maximum effect) by using Originlab 2024b or Graphpad Prism 10:
y = START + (END ‒ START) ∗ xn/(kn + xn)
Where n is the Hill coefficient, k presents the EC 50 value.

S. aureus = experiment: Growth inhibition assay, S. aureus; type: cell-based, Staphylococcus aureus; conditions: 24 h, growth (OD 600 nm) relative to control, 37 °C; for IC80 / IC50: Staphylococcus aureus
Method: (§1) To determine IC50/80 values, growth (optical density) of S. aureus, methicillin-resistant S. aureus (MRSA), P. aeruginosa, and K. pneumoniae when treated with a range of concentrations of each active compound in vitro was measured at 600 nm after a 24 h incubation period at 37 °C. Each compound was studied for activity below […], and those showing little activity above 200 μM, were noted as such, and omitted from further study.
Staphylococcus aureus culture conditions
S. aureus (ATCC33951) was cultured at 37 °C in Nutrient broth (Oxoid), in an orbital shaker at 200 rpm. Stocks were kept on nutrient agar, stored at 4 °C for up to 2 months, or as glycerol stocks (50/50 glycerol:culture), stored at -70 °C indefinitely. […]
(§2) Bacterial cultures were brought to early stationary phase overnight, in nutrient broth (containing 25/50 µg/mL Ampicillin for MRSA/K. pneumoniae, respectively) at 37 °C. Cultures were diluted to an OD600 = 0.01. Aliquots of Culture (100 µl) were added to 100 µL serially diluted compound (200 – 0.78 µM) in nutrient broth in a 96-well plate (Sarstedt, Germany).
(§3) Plates were incubated at 37 °C for 24 h and growth was measured at 600 nm, where growth was measured and represented relative to control. […]

[3] = tested on: methicillin-resistant S. aureus (MRSA); experiment: Growth inhibition assay, MRSA; type: cell-based, Staphylococcus aureus; conditions: 24 h; for IC50 / IC80: Staphylococcus aureus, MRSA; for IC50: read-out: MRSA IC50, growth (OD 600 nm) relative to control, 24 h, 37 °C; for IC80: read-out: MRSA IC80, growth (OD 600 nm) relative to control, 24 h, 37 °C; for MRSA IC50: growth (OD 600 nm) relative to control, 37 °C
Method: as §1
Staphylococcus aureus culture conditions […]
Methicillin-resistant Staphylococcus aureus culture conditions
Methicillin-resistant S. aureus (clinical isolate – St. James’ University Hospital, Dublin) was cultured at 37 °C in Nutrient broth (Oxoid), containing 25 µg/mL Ampicillin in an orbital shaker at 200 rpm. Stocks were kept on nutrient agar containing 25 µg/mL Ampicillin, stored at 4 °C for up to 2 months, or as glycerol stocks (50/50 glycerol:culture), stored at -70 °C indefinitely. […]
as §2, §3

[4] = tested on: panel of Gram-positive and -negative pathogens; experiment: Zone of inhibition assay; type: cell-based; conditions: 5 μL of 1 mM stock on nutrient agar, 37 °C, 24 h; radius ≤ 2 mm deemed not active
Method: To do this, a zone of inhibition assay was used as a qualitative measure of activity. To do so, 5 μL of a 1 mM stock of the respective compound was pipetted atop nutrient agar which was previously spread with a panel of Gram-positive and -negative pathogens of interest. Following incubation at 37 °C for 24 h, zones of inhibition were measured and recorded for each compound. Zones with a radius ≤ 2 mm were deemed as not active, and thus eliminated from further study.

[5] = parameters: method as in doi:10.1021/jo01097a026; conditions: for the relevant substitution pattern; cited from earlier work

| Structure (SMILES) | K a [1] [M⁻¹] | EC50 (mol%) [2] | IC80 (S. aureus) [µM] | IC50 (S. aureus) [µM] | S. aureus IC50 (S. aureus) | IC50 [3] [µM] | IC80 [3] [µM] | MRSA IC50 [3] | zone of inhibition, qualitative measure of activity [4] | Hammett parameter (σ) [5] |
| --- | --- | --- | --- | --- | --- | --- | --- | --- | --- | --- |
| O=c1c(Nc2ccccc2Cl)c(NC23CC4CC(CC(C4)C2)C3)c1=O [Compound 5] | 44 | 1.349 mol% | > 200 | > 200 | lay outside the concentration range tested | > 200 | > 200 | lay outside the concentration range tested | promising bioactivity | – |
| O=c1c(Nc2ccc(Cl)cc2)c(NC23CC4CC(CC(C4)C2)C3)c1=O [Compound 3] | 207 | 0.2597 mol% and 0.260 mol% | > 200 | > 200 | lay outside the concentration range tested | > 200 | > 200 | lay outside the concentration range tested | promising bioactivity | 0.23 |
| O=c1c(Nc2ccccc2)c(NC23CC4CC(CC(C4)C2)C3)c1=O [Compound 6] | 138 | – | > 200 | > 200 | lay outside the concentration range tested | > 200 | > 200 | lay outside the concentration range tested | – | 0.0 |

— paper PMC11788822, “Uncovering the potent antimicrobial activity of squaramide based anionophores – chloride transport and membrane disruption” (Chemical Science, 2025)
